Experiment [1] deals with antigen-induced paw edema (KLH-immunised BALB/c mice). Briefly: Antigen-induced paw edema in the mouse. As to conditions: daily day 0 to day 13, 8 hours after challenge. It counts as in vivo, mouse (female BALB/c). On the procedure: Antigen-induced paw edema in the mouse.
Groups of 4-8 female BALB/c mice (20-22 g; Charles River, Calco, Italy) were immunised at days 0 and 7 with two s.c. injections, of keyhole limpet hemocyanin (KLH, 100 μg/mouse; Sigma Chemicals, S. Louis, Mo.) emulsified in 0.2 ml complete Freund's adjuvant (CFA, Sigma Chemicals, S. Louis, Mo.). Non-immunised mice (Control) were treated with CFA alone. On day 14, immunised mice were challenged in the hind footpad with 20 μg KLH suspended in physiological solution. Eight hours after antigen challenge the edema was quantified measuring the dorsal-ventral thickness of the footpad with a scientific micrometer (Borletti, Italy). To evaluate their immunosuppressive activity, the compounds were administered daily from day 0 to day 13.

Experiment [2] relates to murine splenocytes (BALB/c and DBA/2 mice). Briefly: Mixed lymphocyte reaction (MLR), bi-directional, [3H]-thymidine proliferation. Format: cell-based, murine (BALB/c and DBA/2 mice). As to conditions: Mus musculus, Splenocyte, 96 hours. How it is done: Mixed lymphocyte reaction (MLR).
Bi-directional MLR was carried out using murine cells. Splenocytes were prepared from BALB/c and DBA/2 mice (18-20 g) Charles River, Calco, Italy). Briefly, single cell suspensions were isolated from spleen by Ficoll-Hypaque (biochrom, Berlin, Germany) density gradient centrifugation. 5×10^4 splenocytes from each preparation was cultured for 96 hours in triplicate in 96-well round-bottom plates (Nunc, Roskilde, Denmark), in the absence or presence of serial dilutions of the tested compounds. All compounds were dissolved in dimethyl sulfoxide (DMSO) to a final 20 mM concentration and then diluted into the culture medium used for the cell assay. To take into account a possible interference from DMSO, each experiment included a control in which the DMSO concentration was made equal to those of compound-treated cultures. Culture medium used was RPMI 1640 (Biochrom, Berlin, Germany), supplemented with 5% foetal bovine serum (Hyclone Laboratories Inc., Logan, Utah), 50 μm 2-mercaptoethanol, 2 mM L-glutamine, 0.1 mM non-essential amino acids, 1 mM sodium pyruvate, 100 IU/ml penicillin, and 100 μg/ml streptomycin. During the last 18 hours of culture, cells were pulsed with 1 μCi of [^3 H]-thymidine (Amersham, UK) and then harvested onto glass fiber filters by means of a cell harvester. Radioacivity, proportional to proliferation, was measured with a β-counter.

The test system of experiment [3] is CD25. Briefly: Inhibition of lymphocyte activation antigens expression: CD25 (OKT3-stimulated PBMC, flow cytometry). As to conditions: human PBMC, 24 hr. Format: cell-based. How it is done: (§1) Inhibition of lymphocyte activation antigens expression.
(§2) Human peripheral blood mononuclear cells (PBMC) from healthy donors were separated by Ficoll-Hypaque density-gradient centrifugation. The cells recovered were suspended in culture medium (RPMI 1640 supplemented with 10% foetal bovine serum, 2 mM L-glutamine, 100 IU/ml penicillin and 100 μg/ml streptomycin).
(§3) PBMC, suspended at a density of 10^6 cells/ml in culture medium, were incubated in 24-well plates (Costar, Cambridge, Mass.) with the tested compounds and, 30 min later, stimulated with optimal concentration of the monoclonal antibodies OKT3 (Ortho Diagnostic Inc., Raritan, N.J.) for 24 hr at 37° C. and under 5% CO2. At the end of incubation, cells were washed twice with PBS containing 2% human serum (Irvine Scientific, Irvine, Calif.) and then incubated with fluorescein isothiocyanate (FITC)-conjugated monoclonal antibodies (Mab) for 30 min on ice. Cells were then washed as above and fluorescence analysis was performed by flow-cytometry on a FACScan (Becton-Dickinson, Mountain View, Calif.). The Mabs used were anti-Leu5b (CD2), anti-Interleukin-2 receptor (CD25) and anti transferrin receptor (CD71). Fluorescence background was determined by incubating the cells with FITC-conjugated mouse IgG of the relevant isotype. Forward- and right-angle scatter were set in order to include lymphocytes and lymphoblasts. The results, expressed as percentage of inhibition of mean fluorescence (MF), were calculated as follows: [formula]

In experiment [4] the test system is CD2. Briefly: Inhibition of lymphocyte activation antigens expression: CD2 (OKT3-stimulated PBMC, flow cytometry). As to conditions: human PBMC, 24 hr. Format: cell-based. How it is done: as §1, §2, §3
Experiment [5] concerns CD71. Briefly: Inhibition of lymphocyte activation antigens expression: CD71 (OKT3-stimulated PBMC, flow cytometry). Format: cell-based. As to conditions: human PBMC, 24 hr. How it is done: as §1, §2, §3
Experiment [6] relates to adjuvant arthritis (complete Freund's adjuvant). Briefly: Adjuvant arthritis in the rat. It counts as in vivo, rat (male Lewis). Conditions: p.o. daily.

For the molecule `Cc1oncc1C(=O)Nc1ccc(C(F)(F)F)cc1` [Leflunomide, 5-methyl-N-(4-trifluoromethylphenyl)isossazole-4-carboxamide], the “Percentage of inhibition of edema formation” value in experiment [1] (10 mg/Kg p.o.) is 43%. Moreover, the half-maximal inhibitory concentration (IC50) in experiment [2] is 9.6 ± 3.1 µM; in experiment [3], 130 µM; in experiment [4], 126 µM; in experiment [5], more than 100 µM.
In the case of `CC(O)=C(C(=O)Nc1ccc(C(F)(F)F)cc1)C(=O)Nc1ccc(C(F)(F)F)cc1` [Example 1, N-(4-trifluoromethylphenyl)-2-(4-trifluoromethylphenylcarbamoyl)-3-hydroxybut-2-enamide], the concentration for half-maximal inhibition (IC50) was 11.9 ± 0.1 µM in experiment [2], 18.4 µM in experiment [3], 15.3 µM in experiment [4] and 18.8 µM in experiment [5].
Take `O=C(Nc1ccc(C(F)(F)F)cc1)c1ccccc1O` [Example 5, N-(4-trifluoromethylphenyl)-2-hydroxy-benzamide]: in experiment [1] (10 mg/Kg i.p.), the “Percentage of inhibition of edema formation” value is on record as 37%. Further, the concentration for half-maximal inhibition (IC50) in experiment [2] worked out at 1.65 ± 0.1 µM; in experiment [3], 2.4 µM; in experiment [4], 3 µM; in experiment [5], 4.4 µM.
As to `O=C1CCCC(O)=C1C(=O)Nc1ccc(C(F)(F)F)cc1` [Example 4], the IC50 in experiment [2] was 45.9 ± 29.5 µM; in experiment [3], more than 100 µM; in experiment [4] it was 95.4 µM; in experiment [5], more than 100 µM.
`O=C(Nc1ccc(C(F)(F)F)cc1)C1=C(O)COC1=O` [Example 2, N-(4-trifluoromethylphenyl)-4-hydroxy-2-oxo-(5H)-furan-3-carboxamide]: the IC50 is 3.4 ± 1.1 µM in experiment [2], 14.8 µM in experiment [3], 13.8 µM in experiment [4] and 66.5 µM in experiment [5].
In the case of `O=C1CCC(O)=C1C(=O)Nc1ccc(C(F)(F)F)cc1` [Example 3], the IC50 in experiment [2] amounted to 1.25 ± 0.2 µM; in experiment [3], 2.9 µM; in experiment [4], 2.9 µM; in experiment [5], 11 µM. In addition, the figures for the “Inhibition (%) of arthritis score” value in experiment [6] (Day 14), in experiment [6] (Day 17) and in experiment [6] (Day 21) were 42%, 46% and 19%, respectively. The Arthritis score in experiment [6] (Day 14, vehicle score 3.6 ± 0.5) was 2.1 ± 0.1; in experiment [6] (Day 17, vehicle score 4.8 ± 0.4), 2.6 ± 0.1; in experiment [6] (Day 21, vehicle score 4.8 ± 0.6) it was 3.9 ± 0.2.
